pEC50, pIC50: −log10 of the molar value. Read-outs that look alike come from different tables or passages of the source.
What was measured:
[1] = target: PDE 1 (Ca2+/calmodulin-dependent); test: Activity against other Phosphodiesterase enzymes: PDE 1; type: biochemical
Method: (§1) Additionally, activity of the compounds were tested against other Phosphodiesterase enzymes, namely, PDE 1 (Ca^2+/calmodulin-dependent), PDE 2 (cGP-stimulated), PDE 3 (cGP-inhibited), PDE 5 (cGP-specific) and PDE 6 (cGP-specific, photoreceptor).
(§2) Results were expressed as percent inhibition (IC50) in nM concentrations. The IC50 values were determined from the concentration curves by nonlinear regression analysis.

[2] = target: PDE4 enzyme; test: Inhibition of Phosphodiesterase Enzymes (PDE4), [3H]cAMP hydrolysis; type: biochemical
Method: Inhibition of Phosphodiesterase Enzymes (PDE4)
In this assay, PDE4 enzyme converts [^3H] cAMP to the corresponding [^3H] 5′-AMP in proportion to the amount of PDE4 present The [^3H] 5′-AMP then was quantitatively converted to free [^3H] adenosine and phosphate by the action of snake venom 5′-nucleotidase.
The assay was performed with modification of the method of Thompson and Appleman (Biochemistry; 1971; 10; 311-316) and Schwartz and Passoneau (Proc. Natl. Acad. Sci. U.S.A. 1974; 71; 3844-3848), both references incorporated herein by reference in their entirety, at 34° C. In a 200 ul total reaction mixture, the reaction mixture contained 12.5 mM of Tris, 5 mM MgCl2, 1 μM cAMP (cold) and ^3H cAMP (0.1 uCi), (Amersham). […] Drug samples were then added in the reaction mixture (25 μl/tube). The assay was initiated by addition of enzyme mix (75 μl) and the mixture was incubated for 20 minutes at 34° C. The reaction was stopped by boiling the tubes for 2 mins at 100° C. in a water bath. After cooling on ice for 5 minutes and addition of 50 ug/reaction of 5′-nucleotidase snake venom from Crotalus atrox incubation was carried out again for 20 min. at 34° C. The unreacted substrate was separated from (^3H) Adenosine by addition of Dowex AG 1-X8 (Biorad Lab), (400 ul) which was prequilibrated (1:1:1) in water and ethanol. Reaction mixture was then thoroughly mixed, placed on ice for 15 minutes, vortexed and centrifuged at 14,000 r.p.m. for 2 mins. After centrifugation, a sample of the supernatant was taken and added in 24 well optiplates containing Scintillant (1 ml) and mixed well. The samples in the plates were then determined for radioactivity in a Top Counter and the PDE4 activity was estimated. PDE4 enzyme was present in quantities that yield <30% total hydrolysis of substrate (linear assay conditions).
as §2
The IC50 value for the compound examined was determined from concentration-response curves in which varying range of concentrations were considered as shown in table 1

[3] = target: PDE 6 (cGP-specific, photoreceptor); test: Activity against other Phosphodiesterase enzymes: PDE 6; type: biochemical
Method: as §1, §2

[4] = target: PDE 2 (cGP-stimulated) (Homo sapiens, UniProt O00408); test: Activity against other Phosphodiesterase enzymes: PDE 2; type: biochemical; settings: read-out: IC50 values PDE2
Method: as §1, §2

[5] = target: PDE 3 (cGP-inhibited); test: Activity against other Phosphodiesterase enzymes: PDE 3; type: biochemical; settings: read-out: IC50 values PDE3
Method: as §1, §2

[6] = system: PDE4; test: Cell Based Assay for PDE4 Inhibition: cAMP elevation in whole U937 cells; settings: 1 μM PGE1, normalized over PGE1
Method: Cell Based Assay for PDE4 Inhibition:
cAMP elevation studies were conducted in whole U937 cells. U937 cells (ATCC) were grown in RPMI medium containing 10% FBS, 1% pen-strep solution, 1% L-glutamine for 48 hrs. On the day of assay, the cells were washed twice with plain RPM1 medium by centrifuging at 800 rpm for 5 mins. Cells were resuspended in plain RPM1 medium followed by cell number and viability assessment using a trypan blue stain. Cells (0.15-0.2 mio cells per well) were seeded in a 96 well microtitre plate and incubated with various drugs/DMSO vehicle at 37° C. for 15 min. cAMP generation was started by addition of 1 μM PGE1 for 15 mins. The incubation was terminated by addition of cell lysis buffer from cAMP estimation kit. Lysate was used for cAMP quantitatin by chemiluminescence method (DiscoveRX kits). cAMP values were normalized over PGE1. EC50 values were calculated from dose response curves by nonlinear regression analysis using PRISM software.

[7] = PDE4 enzyme, 1 μM cAMP and 3H cAMP, 34° C., read-out: IC50

Chain of PDE 2 (cGP-stimulated) (O00408 whole entry): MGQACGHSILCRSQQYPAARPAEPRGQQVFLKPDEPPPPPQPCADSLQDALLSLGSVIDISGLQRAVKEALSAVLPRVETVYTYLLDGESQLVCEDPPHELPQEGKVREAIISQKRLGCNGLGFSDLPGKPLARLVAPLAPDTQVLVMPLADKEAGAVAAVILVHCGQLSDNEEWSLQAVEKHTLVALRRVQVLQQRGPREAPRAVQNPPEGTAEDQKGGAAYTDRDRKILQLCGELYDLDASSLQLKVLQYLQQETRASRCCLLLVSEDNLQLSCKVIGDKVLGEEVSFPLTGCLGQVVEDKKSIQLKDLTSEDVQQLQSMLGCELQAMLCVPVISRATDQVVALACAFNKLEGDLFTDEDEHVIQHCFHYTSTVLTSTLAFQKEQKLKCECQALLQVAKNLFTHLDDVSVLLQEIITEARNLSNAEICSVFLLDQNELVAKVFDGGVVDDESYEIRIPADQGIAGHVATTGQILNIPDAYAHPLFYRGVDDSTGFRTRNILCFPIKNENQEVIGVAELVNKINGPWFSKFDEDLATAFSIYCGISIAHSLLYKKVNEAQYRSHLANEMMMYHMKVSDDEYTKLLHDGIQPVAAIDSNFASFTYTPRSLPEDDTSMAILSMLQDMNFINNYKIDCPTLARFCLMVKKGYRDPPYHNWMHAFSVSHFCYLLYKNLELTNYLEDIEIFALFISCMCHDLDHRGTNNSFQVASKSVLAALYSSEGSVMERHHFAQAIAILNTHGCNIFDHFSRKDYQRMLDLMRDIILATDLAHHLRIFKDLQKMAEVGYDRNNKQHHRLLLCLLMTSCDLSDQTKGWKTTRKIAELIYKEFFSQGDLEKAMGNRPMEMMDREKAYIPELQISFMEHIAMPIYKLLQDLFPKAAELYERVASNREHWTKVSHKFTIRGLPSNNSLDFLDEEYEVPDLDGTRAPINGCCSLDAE

Compound | pIC50 [2, 7] | melting point | pEC50 [6] | further results
COc1ccc(C(=O)Nc2cc[n+]([O-])cc2)c2c1oc1ccccc12 [Example 4, N(pyrid-4-yl)-4-methoxy dibenzo[b,d]furan-1-carboxamide-N1-oxide] | 7.70 | – | < 6.52 | –
COc1ccc(C(=O)Nc2cccnc2Cl)c2c1oc1ccccc12 [Example 5, N-(2-chloropyrid-3-yl)-4-methoxy dibenzo[b,d]furan-1-carboxamide] | 6.47 | 192 °C | – | –
COc1ccc(C(=O)Nc2cccnc2)c2c1oc1ccccc12 [Example 7, N-(pyrid-3-yl)-4-methoxy dibenzo[b,d]furan-1-carboxamide] | 7.58 | 226 °C | – | –
COc1ccc(C(=O)Nc2c(Cl)c[n+]([O-])cc2Cl)c2c1oc1ccc(C(F)(F)F)cc12 [Example 10, N-(3,5-dichloropyrid-4-yl)-4-methoxy-8-trifluoromethyl dibenzo[b,d]furan-1-carboxamide-N1-oxide] | 8.77 | – | 6.93 | –
COc1ccc(C(=O)Nc2ccncc2)c2c1oc1ccc(C(F)(F)F)cc12 [Example 11, N(pyrid-4-yl)-4-methoxy-8-trifluoromethyl dibenzo[b,d]furan-1-carboxamide] | 8.04 | – | < 6.66 | –
O=C(Nc1c(Cl)cncc1Cl)c1ccc(OC(F)F)c2oc3ccc(C(F)(F)F)cc3c12 [Example 12, N-(3,5-dichloropyrid-4-yl)-4-difluoromethoxy-8-trifluoromethyl dibenzo[b,d]furan-1-carboxamide] | 8.92 | 228 °C | 6.85 | –
O=C(Nc1c(Cl)c[n+]([O-])cc1Cl)c1ccc(OC(F)F)c2oc3ccc(C(F)(F)F)cc3c12 [Example 13, N-(3,5-dichloropyrid-4-yl)-4-difluoromethoxy-trifluoromethyl dibenzo[b,d]furan-1-carboxamide-N1-oxide] | 8.60 | – | 6.89 | –
O=C(Nc1ccncc1)c1ccc(OC(F)F)c2oc3ccc(C(F)(F)F)cc3c12 [Example 14, N-(pyrid-4-yl)-4-difluoromethoxy-8-trifluoromethyl dibenzo[b,d]furan-1-carboxamide] | 8.19 | 228 °C | – | –
O=C(Nc1c(Cl)c[n+]([O-])cc1Cl)c1ccc(OC(F)F)c2oc3ccccc3c12 [Example 56, N-(3,5-dichloropyrid-4-yl)-4-difluoromethoxy-dibenzo[b,d]furan-1-carboxamide-N-oxide] | 8.55 | – | 7.31 | –
O=C(Nc1c(Cl)cncc1Cl)c1ccc(OC(F)F)c2oc3ccc([N+](=O)[O-])cc3c12 [Example 58, N-(3,5-dichloropyrid-4-yl)-4-difluoromethoxy-8-nitro-dibenzo[b,d]furan-1-carboxamide] | 8.00 | > 270 °C | 6.83 | –
Nc1ccc2oc3c(OC(F)F)ccc(C(=O)Nc4c(Cl)cncc4Cl)c3c2c1 [Example 59, N-(3,5-dichloropyrid-4-yl)-4-difluoromethoxy-8-amino-dibenzo[b,d]furan-1-carboxamide] | 8.35 | > 270 °C | 7.31 | –
COc1ccc(S(=O)(=O)Nc2c(Cl)cccc2Cl)c2c1[nH]c1ccccc12 [Example 77, N4-(2,6-Dichlorophenyl)-1-methoxy-9H-4-carbazolsulphonamide] | – | 201 to 205 °C | – | –

Continued, in another order:

pIC50 [2, 7] | melting point | Compound | pEC50 [6] | further results
9.10 | 302 °C | COc1ccc(C(=O)Nc2c(Cl)cncc2Cl)c2c1oc1ccccc12 [Example 1, N-(3,5-dichloropyrid-4-yl)-4-methoxy dibenzo[b,d]furan-1-carboxamide] | 7.08 | % inhibition at 100 µM [1]: 44%; pIC50 ([2]; Table 1, read-out: IC50 values PDE4): 9.10; % inhibition at 100 µM [3]: 36%; pIC50 [4]: 4.16; pIC50 [5]: 4.21
– | 265 to 270 °C | COc1ccc(C(=O)Nc2c(Cl)c[n+]([O-])cc2Cl)c2c1oc1ccccc12 [Example 2, N-(3,5-dichloropyrid-4-yl)-4-methoxy dibenzo[b,d]furan-1-carboxamide-N1-oxide] | 7.62 | –
8.81 | – | COc1ccc(C(=O)Nc2c(Cl)cncc2Cl)c2c1oc1ccc(C(F)(F)F)cc12 [Example 9, N-(3,5-dichloropyrid-4-yl)-4-methoxy-8-trifluoromethyl dibenzo[b,d]furan-1-carboxamide] | 7.76 | –
8.60 | 270 °C | O=C(Nc1c(Cl)cncc1Cl)c1ccc(OC(F)F)c2oc3ccccc3c12 [Example 19, N-(3,5-dichloropyrid-4-yl)-4-difluoromethoxy dibenzo[b,d]furan-1-carboxamide] | 7.69 | –
6.96 | 242 °C | O=C(Nc1c(Cl)cncc1Cl)c1ccc(OCC2CC2)c2oc3ccccc3c12 [Example 25, N-(3,5-dichloropyrid-4-yl)-4-cyclopropylmethoxy dibenzo[b,d]furan-1-carboxamide] | – | –
8.55 | – | COc1ccc(C(=O)Nc2c(Cl)cncc2Cl)c2c1oc1ccc([N+](=O)[O-])cc12 [Example 38, N-(3,5-dichloropyrid-4-yl)-4-methoxy-8-nitro dibenzo[b,d]furan-1-carboxamide] | 7.06 | –
9.08 | 300 °C | COc1ccc(C(=O)Nc2c(Cl)cncc2Cl)c2c1oc1ccc(Cl)cc12 [Example 41, N-(3,5-dichloropyrid-4-yl)-4-methoxy-8-chloro-dibenzo[b,d]furan-1-carboxamide] | 6.70 | –
8.31 | 308 °C | COc1ccc(C(=O)Nc2c(Cl)cncc2Cl)c2c1oc1ccc(Br)cc12 [Example 42, N-(3,5-dichloropyrid-4-yl)-4-methoxy-8-bromo-dibenzo[b,d]furan-1-carboxamide] | 7.35 | –
8.34 | 304 °C (dec.) | COc1ccc(C(=O)Nc2c(Cl)cncc2Cl)c2c1oc1ccc(I)cc12 [Example 45, N-(3,5-dichloropyrid-4-yl)-4-methoxy-8-iodo-dibenzo[b,d]furan-1-carboxamide] | < 6.52 | –
8.92 | 249 °C (dec.) | COc1ccc(C(=O)Nc2c(Cl)cncc2Cl)c2c1oc1ccc(N)cc12 [Example 55, N-(3,5-dichloropyrid-4-yl)-4-methoxy-8-amino-dibenzo[b,d]furan-1-carboxamide] | 7.32 | –
8.76 | – | COc1ccc(C(=O)Nc2c(Cl)cncc2Cl)c2c1oc1ccc(C#N)cc12 [Example 57, N-(3,5dichloropyrid-4-yl)-4-methoxy-8-cyano-dibenzo[b,d]furan-1-carboxamide] | 7.13 | –

— patent publication US7238725B2, “Tricyclic compounds useful for the treatment of inflammatory and allergic disorders: process for their preparation and pharmaceutical compositions containing them” (Glenmark Pharmaceuticals Ltd., priority 2002, dated 2007)
